System: cmlc2:GFP transgenic fish embryos
Assay: Morpholino and microRNA injections in zebrafish embryos
Format: in vivo
Settings: injection at one-cell stage
Method: Morpholino and microRNA Injections in Zebrafish Embryos. Morpholinos (Gene Tools) were dissolved in water at a 2 mM stock concentration and diluted to a 2 ng/nl working concentration in PBS/phenol red solution. Embryo injections were performed by injecting ˜1 nl morpholino solution at the 1-cell stage using a FemtoJet (Eppendorf). For microRNA mimic injection, a miR-99/100 equimolar mixture at 2 ng/nl in PBS was employed. Morphants were evaluated at 24, 48 and 72 h in a StereoLumar stereoscope (Zeiss).

## Fntb morpholino: translation-blocking morpholino 5′-GCGCCTCTTCCATGATGAGCTCTCA-3′ (SEQ ID NO: 1128) (all phosphorodiamidate morpholino (PMO))
  ventricle size: significantly reduced ventricle size

## Smarca5 morpholino: translation-blocking morpholino 5′-CTTCTTCCCGCTGCTGCTCCATGCT-3′ (SEQ ID NO: 1129) (all phosphorodiamidate morpholino (PMO))
  ventricle size: significantly reduced ventricle size

From US9220721B2, “Methods for heart regeneration” (The Salk Institute for Biological Studies, priority 2012, dated 2015)
